Tests used:
C28 tumors = experiment: CK20 immunohistochemistry of treated C28 tumors; assay type: in vivo, NOD/SCID mice; settings: vs control antibody
Procedure: Control and treated tumors from the C28 xenograft study described above (Example 6) were harvested at the end of the study. The tumors were excised and immunohistochemistry analysis was performed using standard techniques. Briefly, tumors were fixed in formalin, embedded in paraffin, and tumor sections of 4 um thickness were cut. After deparaffinization and hydration, the tumor sections were subjected to an antigen retrieval process in Tris buffer (pH 9.5). Sections were incubated with hydrogen peroxide (Sigma-Aldrich, St Louis, Mo.) for 10 minutes to block endogenous peroxidases. Anti-CK20 (clone Ks20.8, Dako, Carpinteria, Calif.) antibody in blocking buffer at 1:200 dilution (3% NHS, 1% BSA, 0.1% Tween-20, in PBS) was added to each section and incubated for 1 hour. Slides were rinsed 3 times in PBST for 5 minutes each. Anti-mouse secondary antibody conjugated with HRP (ImmPRESS™ anti-mouse Ig, Vector Laboratories Inc., Burlingame, Calif.) was added to the slides and incubated for 30 minutes. After multiple washes with PBST, Vector Nova Red substrate (Vector Laboratories Inc., Burlingame, Calif.) was added for localization of CK20 antigen.

PN4 pancreatic tumors = experiment: In vivo limiting dilution assay of treated PN4 tumors; set-up: species or system NOD/SCID mice; settings: day 75 after injection of 30, 90, 270 cells, control 7 out of 30
Excerpt: Limiting dilution assays (LDA) can be used to assess the effect of therapeutic agents on solid tumor cancer stem cells and on the tumorigenicity of a tumor comprising the cancer stem cells. Such assays can be used to determine the frequency of cancer stem cells in tumors from animals treated with the FZD8-Fc fusion protein or other agent and to compare that frequency to the frequency of cancer stem cells in tumors from control animals. Control and treated tumors from the PN4 xenograft study described above were harvested at the end of the study (day 85). The tumors were processed and dissociated into single cells. […] The human cells in the suspension were harvested, counted, and stained for cell surface markers and appropriate cell doses (30, 90, and 270 cells) in FACS buffer were mixed in a 1:1 mixture with Matrigel and injected subcutaneously in NOD/SCID mice (10 mice per cell dose per treatment group). […] At the desired time point, the percentage of mice with detectable tumors was determined in all groups injected with FZD8-Fc-treated tumor cells and compared to the percentage of mice with detectable tumors in the controls. For example, the number of mice injected with 125 control antibody-treated tumor cells that have detectable tumors is determined and compared to the number of mice injected with 125 FZD8-Fc treated tumor cells that have detectable tumors. […]

C28 colon tumor = C28 colon tumor xenograft, FZD8-Fc variants (Example 14); assay type: in vivo, NOD/SCID mice; settings: C28 established tumors; 15 mg/kg i.p. twice a week
Procedure: Dissociated C28 colon tumor cells (10,000 cells) were injected subcutaneously into 6-8 week old male NOD/SCID mice. Tumors were allowed to grow for 28 days until they reached an average volume of 145 mm^3. The mice were randomized (n=9 per group) and treated with FZD8-Fc variants or a control antibody at a dose of 15 mg/kg twice a week. Administration of the FZD8-Fc variants and control antibody was performed via injection into the intraperitoneal cavity. Tumor growth was monitored and tumor volumes were measured with electronic calipers at the indicated time points. Data are expressed as mean±S.E.M.

[1] = test system: C28 colon tumor xenografts; experiment: C28 colon tumor xenograft, doses and dosing regimen; assay type: in vivo, NOD/SCID mice; settings: from day 2
Procedure: The effect of multiple doses and dosing regimen of FZD8-Fc (54F03) on the growth of C28 colon tumor xenografts was analyzed. Dissociated C28 cells (10,000 per animal) were injected subcutaneously into 6-8 week old male NOD/SCID mice. On day 2, mice were randomized into 6 groups of 10 animals each. Animals were injected with either control antibody or FZD8-Fc at doses of 1.5 mg/kg (twice a week), 5 mg/kg (once and twice a week) and 15 mg/kg (once and twice a week). Administration of the antibody and FZD8-Fc was performed via injection into the intraperitoneal cavity. Tumor growth was monitored weekly and tumor measurements were initiated once tumors were palpable. Tumors were measured twice a week and tumor volume was determined as described herein.

PN4 tumors = experiment: Alcian blue staining of treated PN4 tumors; assay type: in vivo, NOD/SCID mice; settings: day 85, vs control antibody or gemcitabine
Procedure: Increased cell differentiation of PN4 and PN8 tumors with FZD8-Fc treatment. Control and treated tumors from the OMP-PN4 xenograft study described above (Example 3) were harvested at the end of the study (day 85). Tumors were fixed in formalin, embedded in paraffin, and tumor sections of 4 μm thickness were cut. After deparaffinization and hydration, the sections were treated with aqueous acetic acid for 5 minutes at room temperature. The sections were then treated with 1% alcian blue in 3% aqueous acetic acid for 30 minutes and washed with water. Sections were counter-stained in neutral fast red, dehydrated and mounted. Using this method, sialomucins in the tissue samples stain blue and the background appears as pink or red.

## 54F03: Fri domain of human FZD8 fused to human IgG1 Fc with GRA linker; SEQ ID NO:1
C28 tumors
  cells expressing CK20: increase in cells expressing CK20
PN4 pancreatic tumors
  tumor take rate: 3 mice out of 30 mice
C28 colon tumor
  reduction in tumor growth as compared to control antibody: approximately 56%
[1]; 1.5 mg/kg twice a week i.p.
  reduction of growth over control antibody: 52%
[1]; 15 mg/kg twice weekly i.p.
  reduction in tumor growth over control antibody: 83%
PN4 tumors
  cells expressing sialomucins (alcian blue): increase in cells expressing sialomucins
